Publication PMC12281487, “Discovery and Validation of a Novel Class of Necroptosis Inhibitors Targeting RIPK1” (ACS Chemical Biology, 2025)

Legend:
kinase domain of RIPK1 = target: T1, kinase domain of RIPK1 (Homo sapiens, UniProt Q13546); experiment: SPR binding assay
T1 construct: recombinant human kinase domain of RIPK1 [RIPK1 (8-322)-Avi-His]; His (C); made in house; host or cells: Sf21 insect cells (baculovirus, Bac-to-Bac), co-expressed with Cdc37
T1 sequence (Q13546 8-322): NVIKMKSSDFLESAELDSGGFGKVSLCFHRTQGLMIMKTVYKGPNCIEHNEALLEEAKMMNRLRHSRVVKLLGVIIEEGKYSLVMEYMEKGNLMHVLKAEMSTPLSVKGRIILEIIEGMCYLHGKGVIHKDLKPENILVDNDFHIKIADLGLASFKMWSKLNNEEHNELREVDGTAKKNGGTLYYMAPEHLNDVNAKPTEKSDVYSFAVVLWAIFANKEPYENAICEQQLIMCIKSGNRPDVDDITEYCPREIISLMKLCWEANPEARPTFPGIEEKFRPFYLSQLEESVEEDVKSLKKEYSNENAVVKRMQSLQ
Experimental: Biotinylated recombinant human kinase domain of RIPK1 [RIPK1 (8-322)-Avi-His] was produced in Sf21 cells using baculovirus infection (Bac-to-Bac system, Thermo Fisher Scientific). Briefly, the RIPK1 (8-322)-Avi-His baculovirus was inoculated into Sf21 cells at 1.5 × 10^6 cells/mL, with 1 mL of virus added per 500 mL of cells for P2 virus generation. The cells were grown at 27 °C, 140 rpm for 72 h. RIPK1 was co-expressed with Cdc37 at a 4:1 (RIPK1/Cdc37) v/v virus ratio in Sf21 cells by inoculation with P2 virus (25 mL per 500 mL bottle). The cells were grown at 27 °C while shaking at 140 rpm for 48 h before being harvested by centrifugation at 6500 rpm and 4 °C for 15 min and stored at −80 °C before further purification. 25 μM of Nec-1s (ab221984, Abcam) was added to the culture medium at time of viral infection to stabilize protein.
Briefly, RIPK1 kinase domain was immobilized on a streptavidin-coated sensor chip (Cytiva). The surface was washed with 10 mM NaOH, 1 M NaCl, followed by immobilization of the protein. […] The reference spot was treated as described, omitting the injection of RIPK1. Compound concentration series was injected over the immobilized protein in increasing concentrations using multi cycle or single cycle kinetics in running buffer (10 mM HEPES, 150 mM NaCl, 0.05% Tween20, 0.1% DMSO, pH 7.4). A 1:1 Langmuir interaction model was fitted to the experimental traces, enabling determination of k on, k off, and K D.

[1] = tested on: RIPK1 Ser166 phosphorylation; experiment: Western blot of RIPK1 Ser166 phosphorylation in I2.1 cells; format: cell-based, human; settings: prior treatment with 10 μM compound
Experimental: All compound treatments were performed with a preprepared 1000× stock of the desired concentration in DMSO and added directly to the relevant plate, with a final concentration of 0.1% DMSO on the cells. TNF (final concentration 575 pM) was added to induce necroptosis, the cells incubated for 4 h and harvested.
Cells were transferred to a microcentrifuge tube and centrifuged at 200g for 5 min, and media were removed. Cells were washed with PBS and lysed with 100 μL of lysis buffer (radioimmunoprecipitation assay lysis buffer, Sigma-Aldrich, R0278) supplemented with 1× phosphatase inhibitor cocktail 2 (Sigma, P5726) and 1× complete EDTA-free protease inhibitor cocktail (Sigma, […])) on ice for 30 min. The lysate was collected by centrifugation at 17,000g, 4 °C for 5 min, and the lysate was transferred to a new microcentrifuge tube. Protein concentration was determined using the DC Protein Assay (Bio-Rad) in a 96-well plate as per the manufacturer’s instructions and subsequently adjusted to 1 mg mL^–1 using lysis buffer. Samples were prepared by adding 4 μL of 4× loading buffer (Biorad, 161-0747) containing β-mercaptoethanol to 12 μL of protein sample and boiling at 95 °C for 10 min. 14 μL of each sample was loaded onto a 4–15% Mini-PROTEAN TGX precast gel (Biorad, 456-1086) and run in 1× running buffer (0.25 M Tris, 0.2 M glycine, 0.1% (w/v) SDS) for 1.15 h at 130 V. Either 2 μL of precision plus protein all blue prestained protein standards (Bio-Rad, 1610373) or precision plus protein dual color standards (Bio-Rad, 1610374) was used in at least one well.
Proteins were transferred onto a nitrocellulose membrane (GE Healthcare) using the Trans-Blot Turbo Transfer System (Biorad, 1704150) at 2.5 A and 25 V for 7 min. The membrane was stained with Ponceau S to confirm protein transfer prior to blocking with 5% (w/v) nonfat dried skimmed milk in TBS-T (1× Tris-buffered saline, 0.1% (v/v) Tween-20) at rt for 1 h. Staining with the desired primary antibody in 5% (w/v) nonfat dried skimmed milk in TBS-T was performed overnight at 4 °C. The blot was washed with TBS-T at rt (3 × 5 min) and stained with secondary antibody in 5% (w/v) nonfat dried skimmed milk in TBS-T for 1 h at rt. The blot was washed with TBS-T at rt (3 × 5 min), visualized with Immobilon Crescendo Western HRP substrate, and imaged using ImageQuant LAS-4000 Imaging System (Fujifilm), and the contrast normalized in Fiji.

C57BL/6J mice = experiment: TNF-induced SIRS murine model; settings: 5 mg/kg i.v. 15 min before TNF 0.5 mg/kg i.v., 3 mice per group
Experimental: Male C57BL/6J mice of 18–25 g were used at the age of 6–8 weeks. Three animals were included in each experimental group. All animal experiments were carried out with the permission of the local animal ethical committee in accordance with the EU Directive (2010/63/EU), Portuguese laws (DL113/2013, 2880/2015, 260/2016), and all relevant legislations. Animals received humane care in a temperature-controlled environment with a 12 h light–dark cycle and ad libitum access to pelleted chow and water, complying with the Institute’s guidelines, and as outlined in the “Guide for the Care and Use of Laboratory Animals” prepared by the National Academy of Sciences and published by the National Institutes of Health (NIH publication 86-23 revised 1985). […] TNF was diluted in sterile PBS. […] All injections were administered intravenously (i.v.).

[2] = tested on: I2.1 FADD–/– human Jurkat cells; experiment: IncuCyte necroptosis assay in I2.1 cells; settings: Homo sapiens, Jurkat, read-out: EC50 (95% CI), necroptosis inhibition
Experimental: A cell-based assay was established to monitor necroptosis in I2.1 cells using the IncuCyte S3 live cell microscopy platform (Figure S1a). Necroptosis was induced by treatment with TNF, and Sytox Green was used to monitor membrane permeabilization over time as an indicator of progressive necroptotic cell death (Figure S1b–d), allowing determination of the EC50 of candidate necroptosis inhibitors.
I2.1 cells were seeded in a sterile 96-well plate (Greiner) at 20,000 cells per well and incubated at 37 °C overnight. The cells were treated with a final concentration of 600 pM TNF, 1 μM Sytox Green, and compounds in a dose-dependent manner. Wells containing TNF and Sytox Green served as positive control. Wells containing DMSO and Sytox Green served as a negative control. The plate was placed into an IncuCyte S3 Live Cell Analysis System (Sartorius) and readings for phase and green fluorescence were taken every hour for 24 h, with 4 images per well. The images were analyzed with IncuCyte 2021C software and the Green Integrated Intensity Per Image/Phase Area Per Image (GCU × μm^2/image/μm^2/image or GP) was exported. The background at t = 0 h was subtracted, and the linear slope (t = 3–7 h) was calculated by plotting GP against time. The percent inhibition of necroptosis was determined by normalizing to the positive and negative controls and graphing against the [compound]. EC50 values were determined using Prism 10 for each replicate, which were then used to calculate the geometric mean EC50 and associated 95% CIs.
I2.1 cells in a 96-well plate were treated with TNF to induce necroptosis, a dilution series of the candidate necroptosis inhibitor and Sytox Green to monitor cell death. Plates were placed in the IncuCyte® and imaged every hour for 24 h. Cell death was measured over time and used to determine the proportion of necroptotic cells compared to those without necroptosis induction or not treated with an inhibitor. The linear portion of the graph was used to determine an initial rate for calculation of the EC50. TNF with Sytox Green and Sytox Green alone were used as positive and negative controls, respectively. […] EC50 values are expressed as the geometric mean with a 95% confidence interval (CI) of at least three biological replicates.

CN1C(=O)C(Cc2c[nH]c3ccccc23)NC1=S (stereo not drawn) [Nec-1, Necrostatin 1]
koff (kinase domain of RIPK1; 1:1 fitting, 20 °C): 0.011 ± 0.002 s⁻¹ | kon (kinase domain of RIPK1; 1:1 fitting, 20 °C): 260000 M⁻¹ s⁻¹ | Kd (kinase domain of RIPK1; absence of Nec-1, read-out: Binding affinity (pKD) (converted)): 44.7 nM | phosphorylation of RIPK1 Ser166 after TNF [1]: blocked | protection from TNF-induced mortality (survival) (C57BL/6J mice): partially protected | EC50 [2]: 750 nM
